Target: T1, RACK1A Y248 phosphorylation (Arabidopsis thaliana, UniProt O24456)
T1 construct: from tissue; host or cells: one-week old Arabidopsis seedlings (whole-seedling lysate)
Assay: Stress hormone (ABA) induced RACK1A Y248 phosphorylation in Arabidopsis seedlings, western blot (FIG. 1)
Type: cell-based
Details: 10 uM ABA, 12 hours
Source text: The results of lab experiment establish the compounds identified by in silico screen to prevent RACK1 Y248 phosphorylation can inhibit RACK1 Y248 phosphorylation and confirm their utility in their application in RACK1 mediated cellular pathways. Y248 phosphorylation has previously been identified as a key event needed for RACK1 mediated scaffolding activities by regulating protein-protein interactions in plants. The corresponding residue in human RAKI is also a key requirement for scaffolding activities needed at the receptor level during the invasion and migration of cancer cells. […] The knock-out plant did maintain both the RACK1B protein and the RACK1C protein, but the antibody was raised to detect the RACK1A Y248 phosphorylation only.
As to FIG. 1, since RACK1 is a regulator of plant stress hormone Abscisic acid (ABA) (Guo et al., 2009), one-week old Arabidopsis seedlings were treated with 10 uM of ABA in the presence/absence of the inhibitor compounds for 12 hours in a growth chamber (overnight) at 22 C mostly in the night dark. Lysates isolated in buffer (Cell Signaling, MA) supplemented with plant protease inhibitor (Sigma-Aldrich), Protein Tyrosine phosphatase inhibitors (Santa Cruz Biotechnology, TX), and N-Ethylamaleimide (Sigma-Aldrich) at 25 mM to inhibit de-sumoylation. […]

T1 sequence (O24456 whole entry): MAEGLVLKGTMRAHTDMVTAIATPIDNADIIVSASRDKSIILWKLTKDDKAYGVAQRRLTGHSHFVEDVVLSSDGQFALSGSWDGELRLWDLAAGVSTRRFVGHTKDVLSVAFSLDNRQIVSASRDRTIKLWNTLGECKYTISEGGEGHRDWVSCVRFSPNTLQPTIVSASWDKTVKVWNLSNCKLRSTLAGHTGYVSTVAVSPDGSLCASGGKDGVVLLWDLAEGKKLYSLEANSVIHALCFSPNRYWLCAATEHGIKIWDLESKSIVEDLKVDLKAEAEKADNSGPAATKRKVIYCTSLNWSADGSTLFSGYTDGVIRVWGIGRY

RACK1A Y248 phosphorylation with stress hormone present: prevents Y248 phosphorylation
SMILES: Nn1c(S)nnc1-c1ccc(F)cc1 [SD 29, reference compound]

From patent publication US12629355B2, “Drug inhibitor against migration and invasion of cancer cells and methods of treating against metastasis of cancer cells” (HOWARD UNIVERSITY, priority 2019, dated 2026)
